# Reference: the supplement of paper PMC10307832
# Tests used:
# Assay in all cases: relative viability (nuclei count vs DMSO), 5 days (fraction); higher = more cells survive
# [1] = compound: CC[C@@H]1C(=O)N(C)c2cnc(Nc3ccc(C(=O)NC4CCN(C)CC4)cc3OC)nc2N1C1CCCC1 [BI-2536]
# Summary of the method: (§1)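 Lung cancer cell lines were seeded into 1536-well plates, kept overnight at 37 °C and pinned with five library-drug doses (not always all listed) spaced by √10. After 5 days, nuclei were Hoechst-stained, imaged at 4× and counted with MetaXpress. Viability is treated-well nuclei over vehicle-well nuclei, taken as a median across plates. Plates needed control CV below 25% and at least one doubling.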
# [2] = compound: CC1CC(=O)N(C2=CN=C(N=C2N1C3CCCC3)NC4=C(C=C(C=C4)C(=O)NC5CCN(CC5)C)OC)C [NPK76-II-72-1]
# Summary of the method: as §1
# [3] = compound: CC1CC(=O)N(C2=CN=C(N=C2N1C3CCCC3)NC4=C(C=C(C=C4)C(=O)NC5CCN(CC5)C)OC)C [NPK76-II-72-1] + CC1(C)CCC(c2ccc(Cl)cc2)=C(CN2CCN(c3ccc(C(=O)NS(=O)(=O)c4ccc(N[C@H](CCN5CCOCC5)CSc5ccccc5)c(S(=O)(=O)C(F)(F)F)c4)cc3)CC2)C1 [Navitoclax] (partner 0.5 µM)
# Summary of the method: (§2)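 Five library-drug doses in √10 steps were combined with a fixed anchor-drug dose, or a single drug was given alone, by pin tool to lung cancer cell lines in 1536-well plates the day after seeding. Nuclei were stained and counted after 5 days. Relative viability is the nuclei count in treated wells over that in vehicle wells, taken as the median of duplicate plates.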
# [4] = compound: CC[C@@H]1C(=O)N(C)c2cnc(Nc3ccc(C(=O)NC4CCN(C)CC4)cc3OC)nc2N1C1CCCC1 [BI-2536] + Cc1cc(Nc2cc(N3CCN(C)CC3)nc(Sc3ccc(NC(=O)C4CC4)cc3)n2)n[nH]1 [Tozasertib] (partner 0.1 µM)
# Summary of the method: as §2
cell line,measurement,setting,value
UMC-11,relative viability,[1]; 0.01 µM,0.923
same,relative viability,[1]; 0.03162 µM,0.624
same,relative viability,[1]; 0.1 µM,0.175
same,relative viability,[1]; 0.3162 µM,0.205
same,relative viability,[1]; 1 µM,0.2
same,relative viability,[2]; 0.01 µM,0.93
same,relative viability,[2]; 0.03162 µM,0.95
same,relative viability,[2]; 0.1 µM,1.01
same,relative viability,[2]; 0.3162 µM,0.909
same,relative viability,[2]; 1 µM,0.931
same,relative viability,[3]; first compound 0.01 µM,0.313
same,relative viability,[3]; first compound 0.03162 µM,0.276
same,relative viability,[3]; first compound 0.1 µM,0.302
same,relative viability,[3]; first compound 0.3162 µM,0.305
same,relative viability,[3]; first compound 1 µM,0.357
same,relative viability,[4]; first compound 0.01 µM,0.184
same,relative viability,[4]; first compound 0.03162 µM,0.203
same,relative viability,[4]; first compound 0.1 µM,0.198
same,relative viability,[4]; first compound 0.3162 µM,0.31
same,relative viability,[4]; first compound 1 µM,0.361
